Consider two compounds from US8530433B2, “Use of icariside II in manufacture of products for preventing or treating male or female sexual dysfunction” (Bjo-Biomed Ltd, priority 2008, dated 2013).

One test deals with PAE cells. Description: eNOS protein expression by Western blot in PAE cells. The class given is cell-based, porcine. The note with it: 12.5 μM, 24 hr; for eNOS protein expression (normalized to β-actin): PAE cells; for eNOS expression levels: unstable strains. As to the method:
(§1) 2) 5×10^5 of the PAE cells and PAE-EGFR cells were seeded into 35 mm Petri dishes plate in quadruplicate. After 12 hours, PAE and PAE-EGFR cells was treated with 12.5 μM icariside II and sildenafil for 24 hr, respectively. Then the treated PAE and PAE-EGFR cells were lysed with RIPA buffer and subjected to 8% SDS-PAGE electrophoresis. eNOS protein expression was detect by Western blot. After development with super ECL luminescence substrate, the band was analyzed with a Optical density scanner. The results were analyzed by normalizing to β-actin. 3) 5×10^5 of the PAE cells and PAE-EGFR cells were seeded into 35 mm Petri dishes plate in quadruplicate. After 12 hours, PAE and PAE-EGFR cells was treated with 12.5 μM icariside II and sildenafil for 24 hr, respectively, in the presence or absence with 100 μg/ml of EGF. Then the treated PAE and PAE-EGFR cells were lysed with RIPA buffer and subjected to 8% SDS-PAGE electrophoresis. eNOS protein expression was detect by Western blot. After development with super ECL substrate, the band was analyzed with an Optical density scanner. The resulted results were analyzed by normalizing to β-actin.

Test [1] has as its system Porcine vascular endothelial cells (PAE). Description: NOS enzyme activity in vascular endothelial cells (PAE), NOS kit. Format: cell-based. The note with it: for NOS enzyme activity: PAE cells. As for the experimental part:
Porcine vascular endothelial cells (PAE) were provided by the Institute of Urology, Peking University. The determination of the effect of icariside II on NOS activity in the endothelial cell is conducted using NOS kit (Cayman Chemical company, Ann Arbor, Mich., USA). Vascular endothelial cells (PAE) were treated with different concentrations of icariside II (0, 10^−9, 10^−8, 10^−7, 10^−6, 10^−5 and 10^−4 M) (sildenafil as the control group). 180 μl lysate was added into each culture well. 20 μl supernatant was used for protein concentration assay with BCA protein kit. And, 100 μl supernatant was analyzed for NOS activity with NOS kit (Cayman Chemical company, Ann Arbor, Mich., USA). NOS activity (units/mg)=[(valueNos-measure−valueNOS-blank)÷(38.3×10^6)]×[(2.15+supernatant volume)÷(15×supernatant volume)]÷[protein concentration of each Petri dish].

Test [2] has as its system Corpus cavernosum smooth muscle cells. Description: Western blot protein expression of NOS isoforms, PDE5, PKG and sGC in corpus cavernosum smooth muscle cells. Format: cell-based, human. The note with it: 12.5 μM; 1 and 2 days. As for the experimental part: Corpus cavernosum smooth muscle cells were grown in 60 mm Petri dishes. […] Then the treated CCSMCs were lysed with RIPA buffer and subjected to 8% SDS-PAGE electrophosis. Expression of eNOS and other proteins were detected by Western blot. After exposing with super ECL luminescence substrate, the band was analyzed with a Optical density scanner. The resulted results were analyzed by normalizing to β-actin.

The subject of the next test is PAE-EGFR cells. Description: eNOS protein expression by Western blot in PAE-EGFR cells. The class given is cell-based, porcine. The note with it: 12.5 μM, 24 hr; for eNOS protein expression (normalized to β-actin): PAE-EGFR cells; for eNOS expression levels: PAE-EGFR stable strains. As for the experimental part:
as §1, with “1) The EGFR gene was subcloned into pGFP plasmid to construct pGFP-EGFR expression vector. With Liposome transfection reagent (Qigen), pGFP-EGFR was transfected into PAE cells. After the selection with 1800 μg/ml of G418, a single cell clone was selected. Western blot confirms the stable expression of EGFR in the PAE-EGFR cells. 2)” for “2)”
A general note: A western blot detects proteins with antibodies after separation by electrophoresis.

Test [3] has as its system volunteers with erectile dysfunction. The note with it: 500 mg/time, single oral administration before sexual activity; cited from earlier work.
The next test addresses PDE5 (Homo sapiens, UniProt O76074). The note with it: tested in vitro; previous study; cited from earlier work.

With `CCCc1nn(C)c2c(=O)[nH]c(-c3cc(S(=O)(=O)N4CCN(C)CC4)ccc3OCC)nc12` [Sildenafil, sildenafil, reference compound], in the test with PAE cells, the “eNOS protein expression (normalized to β-actin)” value is on record as 1.12 ± 0.09 and the eNOS expression levels is 1.38. Further, in test [1] (10^−5 M), the NOS enzyme activity is given as 6.66 ± 0.65 u/mg. This compound also displayed an NOS enzyme activity in test [1] (10^−6 M) of 5.99 ± 0.58 u/mg. Further, in test [1] (10^−7 M), the NOS enzyme activity is listed as 6.32 ± 0.63 u/mg. Moreover, the NOS enzyme activity in test [1] (10^−8 M) was determined as 5.85 ± 0.579 u/mg. For the same compound, the NOS enzyme activity in test [1] (10^−9 M) is 5.76 ± 0.56 u/mg. In test [1] (endothelial cells (PAE, PAE-EGFR), p>0.05), the “effect on NOS activity in endothelial cells” value is on record as “no significant effect”. In test [2], the PDE5a protein expression result was “decrease”, the PKG protein expression entry is “increase”, the eNOS protein expression result is listed as “no effect” and the iNOS protein expression result is listed as “no effect”. Besides, in test [2], the nNOS protein expression entry is “no effect” and the sGC protein expression entry is reported as “no effect”. In the test with PAE-EGFR cells, the “eNOS protein expression (normalized to β-actin)” value is 1.38 ± 0.013 and the eNOS expression levels is on record as 1.12.

As for icariside II, the “eNOS protein expression (normalized to β-actin)” value was determined as 1.08 ± 0.09 in the test with PAE cells and 2.08 ± 0.02 with PAE-EGFR cells. The values for the eNOS expression levels in the test with PAE cells and in the test on PAE-EGFR cells were 2.08 and 1.16, respectively. Further, the NOS enzyme activity in test [1] (10^−5 M) was 18.66 ± 1.79 u/mg; in test [1] (10^−6 M) it was 19.1 ± 1.9 u/mg; in test [1] (10^−6 M, listed as icariside II) it was 19.1±1.891 u/mg; in test [1] (10^−7 M), 16.46 ± 1.63 u/mg; in test [1] (10^−8 M), 10.71 ± 0.98 u/mg; in test [1] (10^−8 M, listed as icariside II) it was 10.71±1.09 u/mg. Moreover, in test [1] (10^−9 M), the NOS enzyme activity turned out to be 8.65 ± 0.87 u/mg. In addition, in test [3], the “erectile function after single oral administration” value was “some improvement on erectile function, but the effect is not significant”. The PDE5a protein expression result in test [2] is on record as “significantly decreased”. Also, the PKG protein expression entry in test [2] is “significantly increased”. Further, the eNOS protein expression entry in test [2] is “increased at 2 days”. In addition, the iNOS protein expression entry in test [2] is “slightly increased”. Further, in test [2], the nNOS protein expression entry is reported as “significantly increased”. In addition, the sGC protein expression result in test [2] is “significantly increased”. The PDE5 inhibiting potency result at PDE5 is given as “significantly lower than sildenafil”.
